Laboratory results published in paper PMC8443589, “Modelling human liver fibrosis in the context of non-alcoholic steatohepatitis using a microphysiological system” (Communications Biology, 2021).
Each block holds one compound with its values, some of them ahead of it.

How the values were obtained:
[1] = clinical dose, cited from earlier work; for Cmax: read-out: Plasma Cmax
[2] = test system: liver MPS NASH model (PHH, KC and HSC co-cultures, high fat); test: Cell health in dosed NASH microtissues: tissue density (Hoechst) and albumin production (ELISA); assay type: cell-based, human; conditions: for cytotoxicity in NASH microtissues: QD for 10 days
Method: Following 10 days of compound treatment (Supp. Fig. 6a), NASH microtissues were assessed for the production of inflammatory and fibrotic biomarkers (Fig. 3a), the expression of pro-fibrotic genes (Fig. 3b) and the expression of collagen-1 and alpha SMA (Fig. 3c, d). […] Crucially using the developed quantitative imaging approach, both OCA and ELF abrogated α-SMA expression in a concentration-dependent manner by up to 50% and collagen-1 deposition was reduced by up to 35% (Fig. 3d).
Soluble biomarkers in cell culture medium from the MPS were analysed by enzyme-linked immunosorbent assay (ELISA); IL-6 was measured by Human IL-6 DuoSet ELISA (R&D Systems); MCP-1 was measured by Human CCL2/MCP-1 DuoSet ELISA (R&D Systems); pro-collagen 1 was measured by Human Pro-Collagen I α1 DuoSet (R&D Systems); TIMP-1 was measured by Human TIMP-1 Quantikine ELISA Kit (R&D Systems); Fibronectin was measured by Human Fibronectin DuoSet ELISA (R&D Systems); YKL-40 was measured by Human Chitinase 3-like 1 Quantikine ELISA Kit (R&D Systems); Albumin secretion was measured by Human Albumin AssayMax™ ELISA kit (Assay Pro, St. Charles, MO). For all assays, the manufacturer’s protocol was followed.
Supplemental Figure 6 – Treatment of NASH microtissues in MPS platform with Obeticholic acid and […]
PHH, KC and HSC co-cultures were cultured in the MPS platform under high fat conditions and dosed with varying concentrations of Obeticholic acid (OCA) and Elafibranor (ELF) dosed QD for 10 days, following an initial 4-day pre-culture phase. A) Overview of the experimental timeline. B) Tissue density of scaffolds from each control was assessed by quantifying Hoechst staining in each FOV (8 FOV per culture) at the end of the study. C) Albumin production between conditions was compared by ELISA at two timepoints. All datapoint are shown and error bars highlight means ± SD.
(1 picture or pasted object on this page, not shown here)

Albumin production ([2]; higher doses, 10 days of compound treatment): slightly reduce albumin production
Compound: CSc1ccc(C(=O)/C=C/c2cc(C)c(OC(C)(C)C(=O)O)c(C)c2)cc1 [Elafibranor]
Cmax [1]: 13 µM
cytotoxicity in NASH microtissues [2]: does not cause cytotoxicity

Compound: CC[C@H]1[C@@H](O)[C@@H]2[C@H](CC[C@]3(C)[C@@H]([C@H](C)CCC(=O)O)CC[C@@H]23)[C@@]2(C)CC[C@@H](O)C[C@@H]12 [Obeticholic acid]
liver Cmax [1]: 12.5 µM
Cmax [1]: 0.5 µM
cytotoxicity in NASH microtissues [2]: does not cause cytotoxicity
